Assay results taken from US20160235727A1, “NOVEL PYRROLIDINE DERIVED BETA 3 ADRENERGIC RECEPTOR AGONISTS” (Merck Sharp & Dohme Corp., priority 2013, published 2016).

Biological target: T1, human β3-AR (Homo sapiens, UniProt P13945)
T1 construct: expressed in transfected cells; host or cells: CHO (Chinese hamster ovary) cells, stably transfected
Assay: cAMP functional agonist assay (LANCE TR-FRET) in CHO cells expressing cloned human β3-AR
Format: cell-based
Conditions: for EC50: CHO cells stably expressing cloned human β3-adrenoceptor, cAMP release, read-out: Human β3-AR Agonism EC50; for Human β3-AR Agonist Activity (%): percent maximum activation relative to isoproterenol; for Fold drop in potency vs. 2-chloropyridine analog: EC50 of comparative example divided by EC50 of corresponding 2-chloropyridine compound
Description: The ability of compounds to activate the human β3-AR receptor was measured using a CHO cell line stably expressing the cloned human β1-, β2-, and β3-adrenoceptors (β-AR). […] To quantify the amount of cAMP released following β-AR activation, the LANCE cAMP kit (Perking Elmer), a time-resolved fluorescence resonance energy transfer immunoassay, was used. Compounds were serially diluted in DMSO and an aliquot added to either 384-well or 96-well micro titer plates in assay buffer (5 mM HEPES, 0.1% BSA in Hank's Balanced Salt Solution). […] Following 30 min incubation at room temperature, the cells were lysed by the addition of LANCE detection buffer which contained a europium-labeled cAMP tracer. Fluorescence was measured following one hour incubation at room temperature using a Perking Elmer Envision plate reader, exciting at 340 nm and measuring emission at 615 nm and 665 nm. For each assay, a cAMP standard curve was included and used to convert fluorescence readings directly to cAMP amounts. The values were then normalized to isoproterenol, a known full agonist of β-AR, which was titrated in every assay and the EC50 determined using a custom in-house data analysis package. Along with EC50, the percent maximum activation relative to isoproterenol is reported.
The cAMP production is measured using a homogenous time-resolved fluorescence resonance energy transfer immunoassay (LANCE™, Perkin Elmer) according to the manufacture's instructions. Chinese hamster ovary (CHO) cells, stably transfected with the cloned β-adrenergic receptor (β1, β2 or β3) are harvested after 3 days of subculturing. Harvesting of cells is done with Enzyme-free Dissociation Media (Specialty Media). Cells are then counted and resuspended in assay buffer (Hank's Balanced salt solution supplemented with 5 mM HEPES, […]) containing a phosphodiesterase inhibitor (IBMX, 0.6 mM). The reaction is initiated by mixing 6,000 cells in 6 μL with 6 μL Alexa Fluor labeled cAMP antibody (LANCE™ kit) which is then added to an assay well containing 12 μL of compound (diluted in assay buffer to 2× final concentration). The reaction proceeds for 30 minutes at RT and is terminated by the addition of 24 ul detection buffer (LANCE™ kit). The assay plate is then incubated for 1 h at RT and time-resolved fluorescence measured on a Perkin Elmer Envision reader or equivalent. The unknown cAMP level is determined by comparing fluorescence levels to a cAMP standard curve.
The non-selective, full agonist β-adrenergic ligand isoproterenol is used at all three receptors to determine maximal stimulation. […] Data are analyzed using Microsoft Excel and Graphpad Prism or an internally developed data analysis software package. […]

T1 sequence (P13945 whole entry): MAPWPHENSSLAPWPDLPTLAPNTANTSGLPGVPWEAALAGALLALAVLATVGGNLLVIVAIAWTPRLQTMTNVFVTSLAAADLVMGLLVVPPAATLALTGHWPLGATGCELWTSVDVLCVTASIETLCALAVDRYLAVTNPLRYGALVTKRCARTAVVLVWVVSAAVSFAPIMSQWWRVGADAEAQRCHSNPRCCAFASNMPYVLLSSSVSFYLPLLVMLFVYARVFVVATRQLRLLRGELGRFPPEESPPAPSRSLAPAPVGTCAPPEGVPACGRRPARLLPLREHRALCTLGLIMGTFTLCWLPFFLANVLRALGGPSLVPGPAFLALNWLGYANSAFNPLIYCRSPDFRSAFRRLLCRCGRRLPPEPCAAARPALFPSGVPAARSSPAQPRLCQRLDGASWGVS

EC50 | Human β3-AR Agonist Activity (%) | Fold drop in potency vs. 2-chloropyridine analog | SMILES
68 nM | 105% | 8.6 fold | C[C@H](c1nn(C)c(=O)o1)N(C)C(=O)c1ccc(C[C@@H]2CC[C@H]([C@H](O)c3ccccc3)N2)cc1 [Example 18-B, 4-(((2S,5R)-5-((R)-hydroxy(phenyl)methyl)pyrrolidin-2-yl)methyl)-N-methyl-N—((R)-1-(4-methyl-5-oxo-4,5-dihydro-1,3,4-oxadiazol-2-yl)ethyl)benzamide]
13 nM | 101% | 1.7 fold | C[C@H](c1nn(C)c(=O)o1)N(C)C(=O)c1ccc(C[C@@H]2CC[C@H]([C@H](O)c3ccc(Cl)cc3)N2)cc1 [Example 18-G, 4-(((2S,5R)-5-((R)-(4-chlorophenyl)(hydroxy)methyl)pyrrolidin-2-yl)methyl)-N-methyl-N—((R)-1-(4-methyl-5-oxo-4,5-dihydro-1,3,4-oxadiazol-2-yl)ethyl)benzamide]
5 nM | 111% |  | CC(C)[C@H](c1nn(C)c(=O)o1)N(C)C(=O)c1ccc(C[C@@H]2CC[C@H]([C@H](O)c3ccc(Cl)nc3)N2)cc1 [Example 19-A, 4-(((2S,5R)-5-((R)-(6-chloropyridin-3-yl)(hydroxy)methyl)pyrrolidin-2-yl)methyl)-N-methyl-N—((R)-2-methyl-1-(4-methyl-5-oxo-4,5-dihydro-1,3,4-oxadiazol-2-yl)propyl) benzamide]
32 nM | 115% | 5.8 fold | CC(C)[C@H](c1nn(C)c(=O)o1)N(C)C(=O)c1ccc(C[C@@H]2CC[C@H]([C@H](O)c3ccccc3)N2)cc1 [Example 19-B, 4-(((2S,5R)-5-((R)-hydroxy(phenyl)methyl)pyrrolidin-2-yl)methyl)-N-methyl-N—((R)-2-methyl-1-(4-methyl-5-oxo-4,5-dihydro-1,3,4-oxadiazol-2-yl)propyl)benzamide]
5 nM | 108% |  | CN(Cc1cccc(=O)[nH]1)C(=O)c1ccc(C[C@@H]2CC[C@H]([C@H](O)c3ccc(Cl)nc3)N2)cc1 [Example 20-A, 4-(((2S,5R)-5-((R)-(6-chloropyridin-3-yl)(hydroxy)methyl)pyrrolidin-2-yl)methyl)-N-methyl-N-((6-oxo-1,6-dihydropyridin-2-yl)methyl)benzamide]
9 nM | 103% | 2.1 fold | CN(Cc1cccc(=O)[nH]1)C(=O)c1ccc(C[C@@H]2CC[C@H]([C@H](O)c3ccccc3)N2)cc1 [Example 20-B, 4-(((2S,5R)-5-((R)-hydroxy(phenyl)methyl)pyrrolidin-2-yl)methyl)-N-methyl-N-((6-oxo-1,6-dihydropyridin-2-yl)methyl)benzamide]
86 nM | 72% | 18.9 fold | CN(Cc1cccc(=O)[nH]1)C(=O)c1ccc(C[C@@H]2CC[C@H]([C@H](O)c3ccc(OC(F)F)cc3)N2)cc1 [Example 20-E, 4-(((2S,5R)-5-((R)-(4-(difluoromethoxy)phenyl)(hydroxy)methyl)pyrrolidin-2-yl)methyl)-N-methyl-N-((6-oxo-1,6-dihydropyridin-2-yl)methyl)benzamide]
6 nM | 99% | 4.5 fold | CN(Cc1cccc(=O)[nH]1)C(=O)c1ccc(C[C@@H]2CC[C@H]([C@H](O)c3ccc(Cl)cc3)N2)cc1 [Example 20-G]
4 nM | 102% |  | CN(Cc1cccnc1)C(=O)c1ccc(C[C@@H]2CC[C@H]([C@H](O)c3ccc(Cl)nc3)N2)cc1 [Example 21-A, 4-(((2S,5R)-5-((R)-(6-chloropyridin-3-yl)(hydroxy)methyl)pyrrolidin-2-yl)methyl)-N-methyl-N-(pyridin-3-ylmethyl)benzamide]
10 nM | 100% | 2.3 fold | CN(Cc1cccnc1)C(=O)c1ccc(C[C@@H]2CC[C@H]([C@H](O)c3cccc(F)c3)N2)cc1 [Example 21-C, 4-(((2S,5R)-5-((R)-(3-fluorophenyl)(hydroxy)methyl)pyrrolidin-2-yl)methyl)-N-methyl-N-(pyridin-3-ylmethyl)benzamide]

Second part, the molecule before the results:

SMILES | EC50 | Human β3-AR Agonist Activity (%) | Fold drop in potency vs. 2-chloropyridine analog
Cc1[nH]nc(CN(C)C(=O)c2ccc(C[C@@H]3CC[C@H]([C@H](O)c4ccc(Cl)nc4)N3)cc2)c1O [Example 15-A, 4-(((2S,5R)-5-((R)-(6-chloropyridin-3-yl)(hydroxy)methyl)pyrrolidin-2-yl)methyl)-N-((4-hydroxy-5-methyl-1H-pyrazol-3-yl)methyl)-N-methylbenzamide] | 1 nM | 94% | 
Cc1[nH]nc(CN(C)C(=O)c2ccc(C[C@@H]3CC[C@H]([C@H](O)c4ccccc4)N3)cc2)c1O [Example 15-B, 4-(((2S, 5R)-5-((R)-hydroxy(phenyl)methyl)pyrrolidin-2-yl)methyl)-N-((4-hydroxy-5-methyl-1H-pyrazol-3-yl)methyl)-N-methylbenzamide] | 5 nM | 112% | 5.9 fold
COc1c(CN(C)C(=O)c2ccc(C[C@@H]3CC[C@H]([C@H](O)c4ccc(Cl)nc4)N3)cc2)n[nH]c1C [Example 16-A, 4-(((2S,5R)-5-((R)-(6-chloropyridin-3-yl)(hydroxy)methyl)pyrrolidin-2-yl)methyl)-N-((4-methoxy-5-methyl-1H-pyrazol-3-yl)methyl)-N-methylbenzamide] | 2 nM | 102% | 
COc1c(C)n[nH]c1CN(C)C(=O)c1ccc(C[C@@H]2CC[C@H]([C@H](O)c3ccccc3)N2)cc1 [Example 16-B, 4-(((2S,5R)-5-((R)-hydroxy(phenyl)methyl)pyrrolidin-2-yl)methyl)-N-((4-methoxy-5-methyl-1H-pyrazol-3-yl)methyl)-N-methylbenzamide] | 10 nM | 101% | 6.2 fold
Cc1[nH]nc(CN(C)C(=O)c2ccc(C[C@@H]3CC[C@H]([C@H](O)c4ccc(Cl)nc4)N3)cc2)c1Cl [Example 17-A, N-((4-chloro-5-methyl-1H-pyrazol-3-yl)methyl)-4-(((2S,5R)-5-((R)-(6-chloropyridin-3-yl)(hydroxy)methyl)pyrrolidin-2-yl)methyl)-N-methylbenzamide] | 4 nM | 94% | 
Cc1n[nH]c(CN(C)C(=O)c2ccc(C[C@@H]3CC[C@H]([C@H](O)c4ccccc4)N3)cc2)c1Cl [Example 17-B, N-((4-chloro-5-methyl-1H-pyrazol-3-yl)methyl)-4-(((2S,5R)-5-((R)-hydroxy(phenyl)methyl)pyrrolidin-2-yl)methyl)-N-methylbenzamide] | 17 nM | 112% | 4.5 fold
C[C@H](c1nn(C)c(=O)o1)N(C)C(=O)c1ccc(C[C@@H]2CC[C@H]([C@H](O)c3ccc(Cl)nc3)N2)cc1 [Example 18-A, 4-(((2S,5R)-5-((R)-(6-chloropyridin-3-yl)(hydroxy)methyl)pyrrolidin-2-yl)methyl)-N-methyl-N—((R)-1-(4-methyl-5-oxo-4,5-dihydro-1,3,4-oxadiazol-2-yl)ethyl)benzamide] | 8 nM | 101% | 
CN(Cc1cccnc1)C(=O)c1ccc(C[C@@H]2CC[C@H]([C@H](O)c3ccccc3)N2)cc1 [Example 21-B, 4-(((2S,5R)-5-((R)-hydroxy(phenyl)methyl)pyrrolidin-2-yl)methyl)-N-methyl-N-(pyridin-3-ylmethyl)benzamide] | 41 nM | 86% | 9.7 fold
CN(Cc1cccnc1)C(=O)c1ccc(C[C@@H]2CC[C@H]([C@H](O)c3cccc(Cl)c3)N2)cc1 [Example 21-D, 4-(((2S,5R)-5-((R)-(3-chlorophenyl)(hydroxy)methyl)pyrrolidin-2-yl)methyl)-N-methyl-N-(pyridin-3-ylmethyl)benzamide] | 120 nM | 97% | 28.2 fold
